Measured values from US20260224537A1, “METHODS AND COMPOSITIONS FOR TREATING GLUCOCORTICOID-MEDIATED DISEASES” (SPARROW PHARMACEUTICALS, INC., priority 2023, published 2026).
Entries after “also recorded” stand apart in the source; their conditions may differ.

What was measured:
[1] = system: patients with polymyalgia rheumatica (PMR); experiment: Clinical trial in PMR: acute phase markers CRP, ESR, fibrinogen; format: in vivo, human; details: change from baseline after 2 weeks daily treatment
Method: (§1) In an ongoing clinical trial, patients with polymyalgia rheumatica (PMR), who receive prednisolone 10 mg daily for at least 7 days prior to Day 1, are in remission or have low disease activity, and who meet the inclusion and exclusion criteria (Table 1), enter a 4-week treatment period.
(§2) From Day 1 to Week 2, participants continue to receive prednisolone 10 mg and placebo for SPI-62, each daily. From Week 2 to Week 4, participants receive prednisolone, at a dose or randomized doses assigned per cohort, and SPI-62 6 mg, each daily. The order of treatments are not randomized due to the long pharmacological half-life of SPI-62, which is understood to be approximately 4-6 weeks based on data collected up to 2-2.5 weeks after cessation of SPI-62 administration in prior clinical trials. Participants are blinded to the order of treatments. Participants are enrolled in cohorts of approximately 12. • During Cohort 1, 12 participants received prednisolone 10 mg with SPI-62 6 mg. Two participants were erroneously dosed with SPI-62 on Day 1. […] Two participants' prednisolone dose was increased to 15 mg prior to Week 4 following adverse events of PMVR aggravated. […]
Criterion 2—Acute phase markers C-reactive protein (CRP) and erythrocyte sedimentation rate (ESR), which are standard parameters clinicians use to quantitate systemic inflammation in PMR. […]

[2] = system: patients with polymyalgia rheumatica (PMR); experiment: Clinical trial in PMR: assessment of prednisolone toxicity (bone turnover, lipids, glycemic control, coagulation, ECG heart rate, HPA axis); format: in vivo, human
Method: as §1
(§3) From Day 1 to Week 2, participants continue to receive prednisolone 10 mg and placebo for SPI-62, each daily. From Week 2 to Week 4, participants receive prednisolone, at a dose or randomized doses assigned per cohort, and SPI-62 6 mg, each daily. The order of treatments are not randomized due to the long pharmacological half-life of SPI-62, which is understood to be approximately 4-6 weeks based on data collected up to 2-2.5 weeks after cessation of SPI-62 administration in prior clinical trials. Participants are blinded to the order of treatments. Participants are enrolled in cohorts of approximately 12. • During Cohort 1, 12 participants received prednisolone 10 mg with SPI-62 6 mg. Two participants were erroneously dosed with SPI-62 on Day 1. […] Two participants' prednisolone dose was increased to 15 mg prior to Week 4 following adverse events of PMVR aggravated. Those two participants' data are represented in the Figures in the PRL15 CLO6 regimen. […] Those two participants' data are represented in the Figures only in the PRL10 regimen. • During Cohort 2, 12 participants received prednisolone 15 mg (50% dose adjustment) with SPI-62 6 mg. All also received prednisolone 10 mg with placebo for SPI-62. • During Cohort 3, 11 participants received prednisolone 20 mg (100% dose adjustment from Cohort 1) with clofutriben (i.e., SPI-62) 6 mg. All also received prednisolone 10 mg with placebo for SPI-62. […] That participant's data are represented in the Figures in the PRL10 and PRL10 CLO6 regimens. • During Cohort 4, 11 participants received prednisolone 30 mg (100% dose adjustment from Cohort 2) with clofutriben (i.e., SPI-62) 6 mg. • Two additional participants dropped out of the trial before they received clofutriben. Those participants' data are represented in the Figures in the PRL10 regimen.
FIGS. 1-26 compare the change from baseline during two weeks of treatment with 10 mg prednisolone and placebo (PRL 10), 10 mg prednisolone and 6 mg clofutriben (PRL10 CLO6), 15 mg prednisolone and 6 mg clofutriben (PRL15 CLO6), 20 mg prednisolone and 6 mg clofutriben (PRL20 CLO6), and 30 mg prednisolone and 6 mg clofutriben (PRL30 CLO6). The central horizontal line of each diamond represents the mean of the observed data. The top and bottom vertices represent the 95% confidence interval of the mean. The top and bottom ‘overlap lines’ would indicate statistically significant difference between groups under assumptions of normal data distribution, equal variances, and lack of covariance with baseline value. As one or more of those assumptions is violated for many of the datasets, statistical significance should not be inferred based on the overlap lines in FIGS. 1-26.
Assessment of prednisolone toxicity focused first on bone turnover biomarkers, which were expected to be the most sensitive based on published evidence of substantial changes within a few days of glucocorticoid administration that correlated with hepatic HSD-1 activity. SPI-62 was associated with changes consistent with an anti-GIOP phenotype, i.e., increases of the bone formation biomarkers OC and P1NP (FIG. 12), and decreases of the bone resorption biomarker CTX (FIG. 13).
Whether GC-associated HDL increase should be considered GC toxicity is not clear. […] About half of the participants (represented by colored circles) were on cholesterol-lowering agents, while no participants received any additional triglyceride lowering agents. The improvements in cholesterol were attributed mainly to a decrease in HDL, representing a reversal of the HDL-increasing effect of GC by clofutriben. […]

[3] = prior trials, participants did not receive GCs; cited from earlier work
[4] = system: patients with polymyalgia rheumatica (PMR); experiment: Clinical trial in PMR: 13-plex cytokine panel; format: in vivo, human; details: SPI-62 6 mg co-administered with prednisolone; 2 weeks
Method: as §1
From Day 1 to Week 2, participants continue to receive prednisolone 10 mg and placebo for SPI-62, each daily. From Week 2 to Week 4, participants receive prednisolone, at a dose or randomized doses assigned per cohort, and SPI-62 6 mg, each daily. The order of treatments are not randomized due to the long pharmacological half-life of SPI-62, which is understood to be approximately 4-6 weeks based on data collected up to 2-2.5 weeks after cessation of SPI-62 administration in prior clinical trials. Participants are blinded to the order of treatments. Participants are enrolled in cohorts of approximately 12. • During Cohort 1, 12 participants received prednisolone 10 mg with SPI-62 6 mg. Two participants were erroneously dosed with SPI-62 on Day 1. […] Two participants' prednisolone dose was increased to 15 mg prior to Week 4 following adverse events of PMVR aggravated. Those two participants' data are represented in the Figures in the PRL15 CLO6 regimen. […] Those two participants' data are represented in the Figures only in the PRL10 regimen. • During Cohort 2, 12 participants received prednisolone 15 mg (50% dose adjustment) with SPI-62 6 mg. All also received prednisolone 10 mg with placebo for SPI-62. • During Cohort 3, 11 participants received prednisolone 20 mg (100% dose adjustment from Cohort 1) with clofutriben (i.e., SPI-62) 6 mg. All also received prednisolone 10 mg with placebo for SPI-62. […] That participant's data are represented in the Figures in the PRL10 and PRL10 CLO6 regimens. • During Cohort 4, 11 participants received prednisolone 30 mg (100% dose adjustment from Cohort 2) with clofutriben (i.e., SPI-62) 6 mg. • Two additional participants dropped out of the trial before they received clofutriben. Those participants' data are represented in the Figures in the PRL10 regimen. […]

[5] = system: patients with polymyalgia rheumatica (PMR); experiment: Clinical trial in PMR: circulating cell counts (lymphoid lineages by quantitative PCR; monocytes, neutrophils, platelets); format: in vivo, human
Method: as §1, §3
FIGS. 1-26 compare the change from baseline during two weeks of treatment with 10 mg prednisolone and placebo (PRL 10), 10 mg prednisolone and 6 mg clofutriben (PRL10 CLO6), 15 mg prednisolone and 6 mg clofutriben (PRL15 CLO6), 20 mg prednisolone and 6 mg clofutriben (PRL20 CLO6), and 30 mg prednisolone and 6 mg clofutriben (PRL30 CLO6). The central horizontal line of each diamond represents the mean of the observed data. The top and bottom vertices represent the 95% confidence interval of the mean. […]
Counts of several circulating lymphoid cell types were determined by quantitative PCR for lineage-specific DNA methylation patterns. […]

[6] = system: patients with diabetic peripheral neuropathy; details: SPI-62 without prednisolone, at 6 weeks, prior trials; cited from earlier work
[7] = Prior clinical trials of SPI-62 (without glucocorticoids); details: human, in vivo; based on data collected up to 2-2.5 weeks after cessation of SPI-62 administration in prior clinical trials; read-out: pharmacological half-life
Method: From Day 1 to Week 2, participants continue to receive prednisolone 10 mg and placebo for SPI-62, each daily. From Week 2 to Week 4, participants receive prednisolone, at a dose or randomized doses assigned per cohort, and SPI-62 6 mg, each daily. The order of treatments are not randomized due to the long pharmacological half-life of SPI-62, which is understood to be approximately 4-6 weeks based on data collected up to 2-2.5 weeks after cessation of SPI-62 administration in prior clinical trials. Participants are blinded to the order of treatments. Participants are enrolled in cohorts of approximately 12. • During Cohort 1, 12 participants received prednisolone 10 mg with SPI-62 6 mg. Two participants were erroneously dosed with SPI-62 on Day 1. […] Two participants' prednisolone dose was increased to 15 mg prior to Week 4 following adverse events of PMVR aggravated. Those two participants' data are represented in the Figures in the PRL15 CLO6 regimen. […] Those two participants' data are represented in the Figures only in the PRL10 regimen. • During Cohort 2, 12 participants received prednisolone 15 mg (50% dose adjustment) with SPI-62 6 mg. All also received prednisolone 10 mg with placebo for SPI-62. • During Cohort 3, 11 participants received prednisolone 20 mg (100% dose adjustment from Cohort 1) with clofutriben (i.e., SPI-62) 6 mg. […]

hepatic HSD-1 = molecular target: T1, hepatic HSD-1 (Homo sapiens, UniProt P28845); experiment: Urinary ratio (tetrahydrocortisol+allotetrahydrocortisol)/tetrahydrocortisone, biomarker of hepatic HSD-1 activity; format: in vivo
T1 construct: confirm the pharmacological effect of SPI-62 on hepatic HSD-1 activity; from tissue; host or cells: liver (hepatocytes) of trial subjects, in vivo; read out through urinary steroid metabolites
T1 sequence (P28845 whole entry): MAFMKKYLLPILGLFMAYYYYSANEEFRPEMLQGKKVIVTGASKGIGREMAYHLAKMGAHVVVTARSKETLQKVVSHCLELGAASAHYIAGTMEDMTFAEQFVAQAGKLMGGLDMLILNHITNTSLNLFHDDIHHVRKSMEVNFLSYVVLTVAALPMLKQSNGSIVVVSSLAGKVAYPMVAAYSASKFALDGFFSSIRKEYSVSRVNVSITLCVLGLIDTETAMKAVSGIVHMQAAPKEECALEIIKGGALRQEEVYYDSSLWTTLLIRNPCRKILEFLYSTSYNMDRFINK
Method: Data from all cohorts were analyzed together to confirm the pharmacological effect of SPI-62 on hepatic HSD-1 activity. In hepatocytes, 5- and 3-steroid reductases, the latter a liver-specific enzyme, convert cortisol and cortisone to tetrahydro metabolites which are excreted in urine. The urinary ratio (tetrahydrocortisol+allotetrahydrocortisol)/tetrahydrocortisone is an accepted biomarker of hepatic HSD-1 activity. Morning spot urine samples were collected at Baseline (BL), after 2 weeks of prednisolone 10 mg treatment (PRL), after 2 weeks of prednisolone 10-30 mg+clofutriben 6 mg treatment (PRL CLO6), and after 4 weeks washout following the last clofutriben dose (WO). […] The similarity between BL and PBO is an example of the repeatability of the HSD-1 ratio in spot urine samples.

healthy adults = details: dexamethasone 3 mg, 5 days; cited from earlier work
[8] = system: patients with polymyalgia rheumatica (PMR); experiment: Clinical trial in polymyalgia rheumatica: PMR disease control, adverse events of PMR aggravated and relapse (Criterion 1); format: in vivo, human; details: 2 weeks daily treatment
Method: as §1
as §2, with “aggravated. Those two participants' data are represented in the Figures in the PRL15 CLO6 regimen.” for “aggravated.”

[9] = PMR patients, change from baseline after 2 weeks daily treatment
[10] = co-administration with prednisolone at any prednisolone dose, 2 weeks
[11] = patients receiving prednisolone, relative to placebo

Cn1c(-c2ccc(C(N)=O)cc2F)nnc1C(C)(C)Oc1c(F)cc(Cl)cc1F [SPI-62, 4-(5-(2-(4-chloro-2,6-difluorophenoxy)propan-2-yl)-4-methyl-4H-1,2,4-triazol-3-yl)-3-fluorobenzamide]
fibrinogen (PF) level [1]: increased | HOMA-IR [2, 9]: not sensitive | HbA1c [2, 9]: not sensitive; also recorded: close to zero | activated partial thromboplastin time (APTT) [2, 9]: improve | bone formation biomarker BSAP [2, 9]: low sensitivity | bone formation biomarker P1NP [2, 9]: increases | bone formation biomarker osteocalcin (OC) [2, 9]: increases | bone resorption biomarker CTX [2, 9]: decreases | morning serum cortisol ([2]; PMR patients, change from baseline after 2 weeks daily treatment, compared to placebo): increase | Prothrombin International Normalized Ratio (INR) [2, 10]: not observed to be sensitive | Prothrombin Time (PT) [2, 10]: not observed to be sensitive | plasma ACTH ([2]; patients receiving prednisolone, clofutriben compared to placebo): increase | DHEA-S [2, 11]: increase, within or close to the reference range | testosterone [2, 11]: increase, within or close to the reference range | hypothalamic-pituitary-adrenal (HPA) axis ([2]; patients that received prednisolone): de-repression | effect on ECG heart rate [3]: No effect | IL-1 receptor antagonist (IL-1RA) level [4]: did not show sensitivity to SPI-62 | granulocyte colony stimulating factor (G-CSF) level [4]: did not show sensitivity to SPI-62 | interferon gamma (IFNγ) level [4]: did not show sensitivity to SPI-62 | monocyte count [5, 9]: anticipated increases | neutrophil count [5, 9]: anticipated increases | platelet count [5, 9]: anticipated increases | counts of circulating lymphoid cell types (B, IL-6R+, memory B, CD3+T, Th17, Treg) ([5]; SPI-62 6 mg co-administered with prednisolone, 2 weeks): decreases of all counted lineages, which were not fully ameliorated by prednisolone dose adjustment | HbA1c [6]: clinically meaningful decrease | half-life [7]: 28 to 42 days | hepatic HSD-1 inhibition after washout (hepatic HSD-1; 4 weeks after the last dose of SPI-62): Substantial hepatic HSD-1 inhibition | hepatic HSD-1 inhibition (hepatic HSD-1; after 2 weeks of prednisolone 10-30 mg + clofutriben 6 mg): full hepatic HSD-1 inhibition | urinary ratio (tetrahydrocortisol+allotetrahydrocortisol)/tetrahydrocortisone, mean value (hepatic HSD-1; morning spot urine after 2 weeks of prednisolone 10-30 mg + clofutriben 6 mg): ≤ 0.2

C[C@@H]1C[C@H]2[C@@H]3CCC4=CC(=O)C=C[C@]4(C)[C@@]3(F)[C@@H](O)C[C@]2(C)[C@@]1(O)C(=O)CO [dexamethasone]
ECG heart rate decrease (healthy adults): approximately 12 bpm | HDL cholesterol (healthy adults): clinically meaningful increase | LDL cholesterol (healthy adults): not particularly sensitive | triglycerides (healthy adults): not particularly sensitive

C[C@]12C=CC(=O)C=C1CC[C@@H]1[C@@H]2[C@@H](O)C[C@@]2(C)[C@H]1CC[C@]2(O)C(=O)CO [prednisolone, reference compound]
HbA1c [2, 9]: decrease | LDL cholesterol [2, 9]: encompassed zero | cholesterol [2, 9]: encompassed zero | triglycerides [2, 9]: encompassed zero | incidence of adverse events of PMR aggravated ([8]; participants with event/participants): 0/50 | PMR relapse (increase of PMR symptoms or disease activity such that a prednisolone dose increase was indicated) ([8]; participants with relapse/participants): 0/50
